Converted amounts (≈) assume the structure as drawn.
Tests used:
P388 = assay: Cytotoxicity against mouse P388 cells; format: functional, cell-based
[1] = Cytotoxicity against human HeLaS3 cells; format: functional, cell-based; conditions: HeLa S3

Compound: O=C1C=C[C@]2(O)CCO[C@@H]2C1 [HALLERIDONE]
- IC50 (P388): 2.1 µg/mL (≈ 13.6 µM)
- IC50 [1]: 2.8 µg/mL (≈ 18.2 µM)

Compound: CC(=O)O[C@]12C=CC(=O)C[C@H]1OCC2
- IC50 (P388): 0.5 µg/mL (≈ 2.55 µM)
- IC50 [1]: 4.1 µg/mL (≈ 20.9 µM)

Compound: CCCC(=O)O[C@]12C=CC(=O)C[C@H]1OCC2
- IC50 (P388): 0.6 µg/mL (≈ 2.68 µM)
- IC50 [1]: 2.7 µg/mL (≈ 12 µM)

Compound: O=C1C=C[C@]2(OC(=O)c3ccccc3)CCO[C@@H]2C1
- IC50 (P388): 0.5 µg/mL (≈ 1.94 µM)
- IC50 [1]: 1.6 µg/mL (≈ 6.19 µM)

Compound: CC(=O)O[C@]12C=CC(O)C[C@H]1OCC2 (stereo not given in full)
- IC50 (P388): > 100 µg/mL
- IC50 [1]: > 100 µg/mL

Compound: CCCCCC(=O)O[C@]12C=CC(O)C[C@H]1OCC2 (stereo not given in full)
- IC50 (P388): 38.5 µg/mL (≈ 151 µM)
- IC50 [1]: 5.3 µg/mL (≈ 20.8 µM)

Compound: O=C1CC[C@]2(O)CCO[C@@H]2C1
- IC50 (P388): 43 µg/mL (≈ 275 µM)
- IC50 [1]: > 100 µg/mL

Compound: OC1C=C[C@]2(O)CCO[C@@H]2C1 (stereo not given in full)
- IC50 (P388): 40.8 µg/mL (≈ 261 µM)
- IC50 [1]: > 100 µg/mL

Compound: CCCCCC(=O)O[C@]12C=CC(=O)C[C@H]1OCC2
- IC50 (P388): 0.3 µg/mL (≈ 1.19 µM)
- IC50 [1]: 1.8 µg/mL (≈ 7.13 µM)

Compound: O=C1C=C[C@]2(OC(=O)c3ccc(Cl)cc3)CCO[C@@H]2C1
- IC50 (P388): 0.7 µg/mL (≈ 2.39 µM)
- IC50 [1]: 0.9 µg/mL (≈ 3.07 µM)

Compound: CCCCCCCC(=O)O[C@]12C=CC(=O)C[C@H]1OCC2
- IC50 (P388): 0.3 µg/mL (≈ 1.07 µM)
- IC50 [1]: 0.8 µg/mL (≈ 2.85 µM)

Compound: O=C1C=C[C@]2(OC(=O)c3cccc(Cl)c3)CCO[C@@H]2C1
- IC50 (P388): < 0.1 µg/mL
- IC50 [1]: 1.2 µg/mL (≈ 4.1 µM)

Compound: CCCCCCCC(=O)O[C@]12C=CC(O)C[C@H]1OCC2 (stereo not given in full)
- IC50 (P388): 8.4 µg/mL (≈ 29.7 µM)
- IC50 [1]: 3.5 µg/mL (≈ 12.4 µM)

Compound: O=C1C=C[C@]2(OC(=O)c3ccccc3Cl)CCO[C@@H]2C1
- IC50 (P388): 0.4 µg/mL (≈ 1.37 µM)
- IC50 [1]: 1 µg/mL (≈ 3.42 µM)

Compound: CCCC(=O)O[C@]12C=CC(O)C[C@H]1OCC2 (stereo not given in full)
- IC50 (P388): > 100 µg/mL
- IC50 [1]: 8.8 µg/mL (≈ 38.9 µM)
